Results reported in US11076594B2, “Pyrazolone compound or salt thereof, preparation method therefor, herbicide composition and use thereof” (QINGDAO KINGAGROOT CHEMICAL COMPOUNDS CO., LTD., priority 2015, dated 2021).

Tests used:
Type in all cases: in vivo
foxtail = assay: weed control effect in post-emergence stage (Table 1); parameters: key: Level 10: completely dead; Level 9: above 95% growth control rate; Level 8: above 90% growth control rate; Level 7: above 80% growth control rate; Level 6: above 70% growth control rate; Level 5: above 60% growth control rate; Level 4: above 50% growth control rate; Level 3: above 20% growth control rate; Level 2: 5%-20% growth control rate; Level 1: below 5% growth control rate; settings: post-emergence spray at 4-5 leaf stage, 250 g/ha active ingredient with 450 kg/ha water, rated after 3 weeks in greenhouse
Outline: (§1)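 Weeds and crops grown in soil-filled pots in a greenhouse were sprayed at the 4-5 leaf stage (2-3 weeks after sowing). Compounds were applied in acetone with tween 80, diluted in water. After 3 weeks' culture, growth control was scored as fresh weight control rate.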

crab grass = assay: as above; parameters: key: Level 10: completely dead; Level 9: above 95% growth control rate; Level 8: above 90% growth control rate; Level 7: above 80% growth control rate; Level 6: above 70% growth control rate; Level 5: above 60% growth control rate; Level 4: above 50% growth control rate; Level 3: above 20% growth control rate; Level 2: 5%-20% growth control rate; Level 1: below 5% growth control rate; settings: post-emergence spray at 4-5 leaf stage, 250 g/ha active ingredient with 450 kg/ha water, rated after 3 weeks in greenhouse
Outline: as §1

echinochloa [1] = assay: as above; parameters: key: Level 10: completely dead; Level 9: above 95% growth control rate; Level 8: above 90% growth control rate; Level 7: above 80% growth control rate; Level 6: above 70% growth control rate; Level 5: above 60% growth control rate; Level 4: above 50% growth control rate; Level 3: above 20% growth control rate; Level 2: 5%-20% growth control rate; Level 1: below 5% growth control rate; settings: post-emergence spray at 4-5 leaf stage, 250 g/ha active ingredient with 450 kg/ha water, rated after 3 weeks in greenhouse
Outline: as §1

rorippa indica = assay: as above; parameters: key: Level 10: completely dead; Level 9: above 95% growth control rate; Level 8: above 90% growth control rate; Level 7: above 80% growth control rate; Level 6: above 70% growth control rate; Level 5: above 60% growth control rate; Level 4: above 50% growth control rate; Level 3: above 20% growth control rate; Level 2: 5%-20% growth control rate; Level 1: below 5% growth control rate; settings: post-emergence spray at 4-5 leaf stage, 250 g/ha active ingredient with 450 kg/ha water, rated after 3 weeks in greenhouse
Outline: as §1

Indian mallow = assay: as above; parameters: key: Level 10: completely dead; Level 9: above 95% growth control rate; Level 8: above 90% growth control rate; Level 7: above 80% growth control rate; Level 6: above 70% growth control rate; Level 5: above 60% growth control rate; Level 4: above 50% growth control rate; Level 3: above 20% growth control rate; Level 2: 5%-20% growth control rate; Level 1: below 5% growth control rate; settings: post-emergence spray at 4-5 leaf stage, 250 g/ha active ingredient with 450 kg/ha water, rated after 3 weeks in greenhouse
Outline: as §1

bidens bipinnata = assay: as above; parameters: key: Level 10: completely dead; Level 9: above 95% growth control rate; Level 8: above 90% growth control rate; Level 7: above 80% growth control rate; Level 6: above 70% growth control rate; Level 5: above 60% growth control rate; Level 4: above 50% growth control rate; Level 3: above 20% growth control rate; Level 2: 5%-20% growth control rate; Level 1: below 5% growth control rate; settings: post-emergence spray at 4-5 leaf stage, 250 g/ha active ingredient with 450 kg/ha water, rated after 3 weeks in greenhouse
Outline: as §1

rice (japonica rice) = assay: transplanted rice safety evaluation; settings: 125 g/ha ai; treated 5 days after transplantation; 21 days after treatment
Experimental: The activity level standard of harmful plant destruction (i.e. growth control rate) is as follows: In addition, the rice field soil that loaded into the 1/1,000,000 ha pot was leveled to keep water storage at 3-4 cm depth. The 3 leaf stage rice (japonica rice) was transplanted at 3 cm of transplanting depth the next day. The compound of the present invention was treated by the same way after 5 days of transplantation. The fertility condition of echinochloa, scirpus juncoides, bidens tripartite and sagittaria trifolia 14 days after the treatment of the compound of the invention and the fertility condition of rice 21 days after the treatment of the compound of the invention respectively with the naked eye.

corn = assay: post-emergence stage experiment, crop (Table 1); settings: post-emergence spray at 4-5 leaf stage, 250 g/ha active ingredient with 450 kg/ha water, rated after 3 weeks in greenhouse
Outline: as §1

wheat = assay: post-emergence stage experiment, crop (Table 1); settings: post-emergence spray at 4-5 leaf stage, 250 g/ha active ingredient with 450 kg/ha water, rated after 3 weeks in greenhouse
Outline: as §1

echinochloa [2] = assay: weed control effect evaluation in rice field; parameters: key: Level 10: completely dead; Level 9: above 95% growth control rate; Level 8: above 90% growth control rate; Level 7: above 80% growth control rate; Level 6: above 70% growth control rate; Level 5: above 60% growth control rate; Level 4: above 50% growth control rate; Level 3: above 20% growth control rate; Level 2: 5%-20% growth control rate; Level 1: below 5% growth control rate; settings: 125 g/ha ai; rice field pot; 14 days after treatment; resistant to pyrazosulfuron-ethyl
Description: (§2) The activity level standard of harmful plant destruction (i.e. growth control rate) is as follows: Rice field soil was loaded into a 1/1,000,000 ha pot. The seeds of echinochloa, scirpus juncoides, bidens tripartite and sagittaria trifolia were sowed and gently covered with soil, then left to stand still in greenhouse in the state of 0.5-1 cm of water storage. The tuber of sagittaria trifolia was planted in the next day or 2 days later. It was kept at 3-4 cm of water storage thereafter. The weeds were treated by dripping the WP or SC water diluents prepared according to the common preparation method of the compounds of the present invention with pipette homogeneously to achieve specified effective amount when echinochloa, scirpus juncoides and bidens tripartite reached 0.5 leaf stage and sagittaria trifolia reached the time point of primary leaf stage. The fertility condition of echinochloa, scirpus juncoides, bidens tripartite and sagittaria trifolia 14 days after the treatment of the compound of the invention and the fertility condition of rice 21 days after the treatment of the compound of the invention respectively with the naked eye.

sagittaria trifolia = assay: weed control effect evaluation in rice field; parameters: key: Level 10: completely dead; Level 9: above 95% growth control rate; Level 8: above 90% growth control rate; Level 7: above 80% growth control rate; Level 6: above 70% growth control rate; Level 5: above 60% growth control rate; Level 4: above 50% growth control rate; Level 3: above 20% growth control rate; Level 2: 5%-20% growth control rate; Level 1: below 5% growth control rate; settings: 125 g/ha ai; rice field pot; 14 days after treatment; resistant to pyrazosulfuron-ethyl
Description: as §2

bidens tripartite = assay: weed control effect evaluation in rice field; parameters: key: Level 10: completely dead; Level 9: above 95% growth control rate; Level 8: above 90% growth control rate; Level 7: above 80% growth control rate; Level 6: above 70% growth control rate; Level 5: above 60% growth control rate; Level 4: above 50% growth control rate; Level 3: above 20% growth control rate; Level 2: 5%-20% growth control rate; Level 1: below 5% growth control rate; settings: 125 g/ha ai; rice field pot; 14 days after treatment; resistant to pyrazosulfuron-ethyl
Description: as §2

scirpus juncoides = assay: weed control effect evaluation in rice field; parameters: key: Level 10: completely dead; Level 9: above 95% growth control rate; Level 8: above 90% growth control rate; Level 7: above 80% growth control rate; Level 6: above 70% growth control rate; Level 5: above 60% growth control rate; Level 4: above 50% growth control rate; Level 3: above 20% growth control rate; Level 2: 5%-20% growth control rate; Level 1: below 5% growth control rate; settings: 125 g/ha ai; rice field pot; 14 days after treatment; resistant to pyrazosulfuron-ethyl
Description: as §2

rice = assay: post-emergence stage experiment, crop (Table 1); settings: post-emergence spray at 4-5 leaf stage, 250 g/ha active ingredient with 450 kg/ha water, rated after 3 weeks in greenhouse
Outline: as §1

| effect on crop, Wheat (level) (wheat) | SMILES | weed control effect, Green foxtail (level) (foxtail) | weed control effect, Crab grass (level) (crab grass) | weed control effect, Echinochloa (level) (echinochloa [1]) | weed control effect, Rorippa indica (level) (rorippa indica) | weed control effect, Indian mallow (level) (Indian mallow) | weed control effect, Bidens bipinnata (level) (bidens bipinnata) | Rice (activity level, transplanted rice safety) (rice (japonica rice)) | effect on crop, Corn (level) (corn) | Echinochloa weed control effect (activity level) (echinochloa [2]) | Sagittaria trifolia weed control effect (activity level) (sagittaria trifolia) | Bidens tripartite weed control effect (activity level) (bidens tripartite) | Scirpus juncoides weed control effect (activity level) (scirpus juncoides) | effect on crop, Rice (level) (rice) |
| --- | --- | --- | --- | --- | --- | --- | --- | --- | --- | --- | --- | --- | --- | --- |
| 0 | Cc1nn(C)c(O)c1C(=O)c1ccc(C(F)(F)F)c(N)c1Cl [Compound 001] | 6 (Level 6: above 70% growth control rate) | 1 (Level 1: below 5% growth control rate) | 6 (Level 6: above 70% growth control rate) | 9 (Level 9: above 95% growth control rate) | 9 (Level 9: above 95% growth control rate) | 8 (Level 8: above 90% growth control rate) | 0 |  | 10 | 9 (Level 9: above 95% growth control rate) | 8 (Level 8: above 90% growth control rate) | 10 | 4 (Level 4: above 50% growth control rate) |
| 0 | Cc1ccn(-c2c(C(F)(F)F)ccc(C(=O)c3c(C)nn(C)c3O)c2Cl)n1 [Compound 077] | 7 (Level 7: above 80% growth control rate) | 4 (Level 4: above 50% growth control rate) | 10 | 10 | 10 | 9 (Level 9: above 95% growth control rate) | 1 (Level 1: below 5% growth control rate) |  | 10 | 10 | 9 (Level 9: above 95% growth control rate) | 10 | 6 (Level 6: above 70% growth control rate) |

The next lines start with the compound.

| SMILES | effect on crop, Wheat (level) (wheat) | weed control effect, Green foxtail (level) (foxtail) | weed control effect, Crab grass (level) (crab grass) | weed control effect, Echinochloa (level) (echinochloa [1]) | weed control effect, Rorippa indica (level) (rorippa indica) | weed control effect, Indian mallow (level) (Indian mallow) | weed control effect, Bidens bipinnata (level) (bidens bipinnata) | Rice (activity level, transplanted rice safety) (rice (japonica rice)) | effect on crop, Corn (level) (corn) | Echinochloa weed control effect (activity level) (echinochloa [2]) | Sagittaria trifolia weed control effect (activity level) (sagittaria trifolia) | Bidens tripartite weed control effect (activity level) (bidens tripartite) | Scirpus juncoides weed control effect (activity level) (scirpus juncoides) | effect on crop, Rice (level) (rice) |
| --- | --- | --- | --- | --- | --- | --- | --- | --- | --- | --- | --- | --- | --- | --- |
| Cn1nc(C2CC2)c(C(=O)c2ccc(C(F)(F)F)c(N3CCCC3=O)c2Cl)c1O [Compound 025] | 3 (Level 3: above 20% growth control rate) | 10 | 6 (Level 6: above 70% growth control rate) | 6 (Level 6: above 70% growth control rate) | 10 | 10 | 8 (Level 8: above 90% growth control rate) | 0 | 4 (Level 4: above 50% growth control rate) | 9 (Level 9: above 95% growth control rate) | 10 | 8 (Level 8: above 90% growth control rate) | 10 | 6 (Level 6: above 70% growth control rate) |
| Cc1nn(C)c(O)c1C(=O)c1ccc(C(F)(F)F)c(-n2cccn2)c1Cl [Compound 068] | 3 (Level 3: above 20% growth control rate) | 10 | 5 (Level 5: above 60% growth control rate) | 10 | 9 (Level 9: above 95% growth control rate) | 10 | 10 | 1 (Level 1: below 5% growth control rate) |  | 10 | 10 | 10 | 9 (Level 9: above 95% growth control rate) | 5 (Level 5: above 60% growth control rate) |
| Cc1nn(C)c(O)c1C(=O)c1ccc(C(F)(F)F)c(N2CCCCCC2=O)c1Cl [Compound 054] | 0 | 5 (Level 5: above 60% growth control rate) | 1 (Level 1: below 5% growth control rate) | 6 (Level 6: above 70% growth control rate) | 9 (Level 9: above 95% growth control rate) | 9 (Level 9: above 95% growth control rate) | 9 (Level 9: above 95% growth control rate) | 2 (Level 2: 5%-20% growth control rate) |  | 8 (Level 8: above 90% growth control rate) | 9 (Level 9: above 95% growth control rate) | 9 (Level 9: above 95% growth control rate) | 9 (Level 9: above 95% growth control rate) | 4 (Level 4: above 50% growth control rate) |
